According to patent US12398120B2, “Substituted hydantoinamides as ADAMTS7 antagonists” (BAYER AKTIENGESELLSCHAFT, priority 2019, dated 2025):

Target: ADAMTS4 (Homo sapiens (Human), UniProt O75173)
Assay: Selectivity assay for ADAMTS-7 modulators: ADAMTS4 (FRET substrate)
Assay type: biochemical
Conditions: ADAMTS4 (R&D 4307-AD) 50 nM, substrate Dabcyl-EEVKAKVQPY-Glu(Edans)-NH2 1 μM, 120 min, 32° C.
Outline: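 Human ADAMTS4 with compound in DMSO, or DMSO control; reaction started by adding FRET substrate in reaction buffer. Fluorescence increase measured at substrate-specific wavelengths. IC50 derived from % inhibition of enzyme activity versus compound concentration.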

Sequence of ADAMTS4 (O75173 213-685): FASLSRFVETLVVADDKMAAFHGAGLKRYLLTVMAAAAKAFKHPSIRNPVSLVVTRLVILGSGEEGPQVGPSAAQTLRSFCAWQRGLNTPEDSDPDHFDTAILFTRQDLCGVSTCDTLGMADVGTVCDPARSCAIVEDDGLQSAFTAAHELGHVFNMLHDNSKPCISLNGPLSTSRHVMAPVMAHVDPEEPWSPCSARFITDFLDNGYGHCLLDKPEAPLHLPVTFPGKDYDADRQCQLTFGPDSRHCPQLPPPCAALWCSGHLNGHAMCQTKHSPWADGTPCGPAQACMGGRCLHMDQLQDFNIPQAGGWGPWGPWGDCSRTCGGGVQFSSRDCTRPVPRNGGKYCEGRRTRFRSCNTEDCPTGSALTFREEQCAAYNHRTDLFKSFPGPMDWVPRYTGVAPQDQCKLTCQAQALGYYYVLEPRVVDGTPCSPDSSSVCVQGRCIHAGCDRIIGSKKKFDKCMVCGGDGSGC

IC50 | Structure (SMILES)
25 µM | CCC(C)C1(CNC(=O)c2ccccc2-c2ccc(C(F)(F)F)nc2)NC(=O)NC1=O (stereo not drawn) [Example 51, Diamix-N-[(4-Sec-Butyl-2,5-Dioxoimidazolidin-4-Yl)Methyl]-2-[6-(Trifluoromethyl)Pyridin-3-Yl]Benzamide]
32 µM | O=C1NC(=O)[C@](CNC(=O)c2ccccc2-c2ccc(Cl)cc2F)(C2CC2)N1 [Example 54, 4′-Chloro-N-{[(4R)-4-Cyclopropyl-2,5-Dioxoimidazolidin-4-Yl]Methyl}-2′-Fluoro[Biphenyl]-2-Carboxamide]
31 µM | O=C1NC(=O)[C@](CNC(=O)c2ccncc2-c2ccc(Cl)cc2)(C2CC2)N1 [Example 56, 3-(4-Chlorophenyl)-N-{[(4R)-4-Cyclopropyl-2,5-Dioxoimidazolidin-4-Yl]Methyl}Isonicotinamide]
12 µM | Cc1nscc1C1(CNC(=O)c2ccccc2-c2ccc(C(F)(F)F)nc2)NC(=O)NC1=O (stereo not drawn) [Example 64, Ent-N-{[4-(3-Methyl-1,2-Thiazol-4-Yl)-2,5-Dioxoimidazolidin-4-Yl]Methyl}-2-[6-(Trifluoromethyl)Pyridin-3-Yl]Benzamide]
20 µM | Cc1nocc1C1(CNC(=O)c2ccccc2-c2ccc(C(F)(F)F)nc2)NC(=O)NC1=O (stereo not drawn) [Example 65, Ent-N-{[4-(3-Methyl-1,2-Oxazol-4-Yl)-2,5-Dioxoimidazolidin-4-Yl]Methyl}-2-[6-(Trifluoromethyl)Pyridin-3-Yl]Benzamide]
8.2 µM | O=C1NC(=O)C(CNC(=O)c2ccccc2-c2ccc(C(F)(F)F)nc2)(c2ccnn2C2CC2)N1 (stereo not drawn) [Example 66, Ent-N-{[4-(1-Cyclopropyl-1H-Pyrazol-5-Yl)-2,5-Dioxoimidazolidin-4-Yl]Methyl}-2-[6-(Trifluoromethyl)Pyridin-3-Yl]Benzamide]
11 µM | Cc1nocc1C1(CNC(=O)c2ccccc2-c2ccc(C(F)(F)F)cc2)NC(=O)NC1=O (stereo not drawn) [Example 68, Ent-N-{[4-(3-Methyl-1,2-Oxazol-4-Yl)-2,5-Dioxoimidazolidin-4-Yl]Methyl}-4′-(Trifluoromethyl)[Biphenyl]-2-Carboxamide]
4.9 µM | Cc1conc1C1(CNC(=O)c2ccccc2-c2ccc(C(F)(F)F)cc2)NC(=O)NC1=O (stereo not drawn) [Example 69, Ent-N-{[4-(4-Methyl-1,2-Oxazol-3-Yl)-2,5-Dioxoimidazolidin-4-Yl]Methyl}-4′-(Trifluoromethyl)[Biphenyl]-2-Carboxamide]
4.5 µM | Cc1cn(C)nc1C1(CNC(=O)c2ccccc2-c2ccc(C(F)(F)F)cc2)NC(=O)NC1=O (stereo not drawn) [Example 70, Ent-N-{[4-(1,4-Dimethyl-1H-Pyrazol-3-Yl)-2,5-Dioxoimidazolidin-4-Yl]Methyl}-4′-(Trifluoromethyl)[Biphenyl]-2-Carboxamide]
16.3 µM | CC(C)(C)C1(CNC(=O)c2ccccc2-c2ccc(C(F)(F)F)cc2)NC(=O)NC1=O (stereo not drawn) [Example 71, Ent-N-[(4-Tert-Butyl-2,5-Dioxoimidazolidin-4-Yl)Methyl]-4′-(Trifluoromethyl)[Biphenyl]-2-Carboxamide]
6.9 µM | Cc1cn(C)nc1C1(CNC(=O)c2ccccc2-c2ccc(C(F)(F)F)nc2)NC(=O)NC1=O (stereo not drawn) [Example 72, Ent-N-{[4-(1,4-Dimethyl-1H-Pyrazol-3-Yl)-2,5-Dioxoimidazolidin-4-Yl]Methyl}-2-[6-(Trifluoromethyl)Pyridin-3-Yl]Benzamide]
20 µM | Cc1nonc1C1(CNC(=O)c2ccccc2-c2ccc(C(F)(F)F)cc2)NC(=O)NC1=O (stereo not drawn) [Example 73, Ent-N-{[4-(4-Methyl-1,2,5-Oxadiazol-3-Yl)-2,5-Dioxoimidazolidin-4-Yl]Methyl}-4′-(Trifluoromethyl)[Biphenyl]-2-Carboxamide]
5.2 µM | Cc1nc(C)c(C2(CNC(=O)c3ccccc3-c3ccc(C(F)(F)F)nc3)NC(=O)NC2=O)s1 (stereo not drawn) [Example 74, Ent-N-{[4-(2,4-Dimethyl-1,3-Thiazol-5-Yl)-2,5-Dioxoimidazolidin-4-Yl]Methyl}-2-[6-(Trifluoromethyl)Pyridin-3-Yl]Benzamide]
10 µM | O=C1NC(=O)[C@](CNC(=O)c2ccc(Cl)cc2-c2ccc(C(F)(F)F)nc2)(C2CC2)N1 [Example 75, 4-Chloro-N-{[(4R)-4-Cyclopropyl-2,5-Dioxoimidazolidin-4-Yl]Methyl}-2-[6-(Trifluoromethyl)Pyridin-3-Yl]Benzamide]
14 µM | O=C1NC(=O)[C@](CNC(=O)c2ccc(F)c(F)c2-c2ccc(C(F)(F)F)nc2)(C2CC2)N1 [Example 76, N-{[(4R)-4-Cyclopropyl-2,5-Dioxoimidazolidin-4-Yl]Methyl}-3,4-Difluoro-2-[6-(Trifluoromethyl)Pyridin-3-Yl]Benzamide]
14 µM | Cc1cnoc1C1(CNC(=O)c2ccccc2-c2ccc(C(F)(F)F)nc2)NC(=O)NC1=O (stereo not drawn) [Example 78, Ent-N-{[4-(4-Methyl-1,2-Oxazol-5-Yl)-2,5-Dioxoimidazolidin-4-Yl]Methyl}-2-[6-(Trifluoromethyl)Pyridin-3-Yl]Benzamide]
5.73 µM | CCn1nccc1C1(CNC(=O)c2ccccc2-c2ccc(C(F)(F)F)cc2)NC(=O)NC1=O (stereo not drawn) [Example 80, Ent-N-{[4-(1-Ethyl-1H-Pyrazol-5-Yl)-2,5-Dioxoimidazolidin-4-Yl]Methyl}-4′-(Trifluoromethyl)[Biphenyl]-2-Carboxamide]
> 50 µM | O=C1NC(=O)[C@](CNC(=O)c2cccnc2-c2ccc(C(F)(F)F)cc2)(C2CC2)N1 [Example 82, N-{[(4R)-4-Cyclopropyl-2,5-Dioxoimidazolidin-4-Yl]Methyl}-2-[4-(Trifluoromethyl)Phenyl]Pyridine-3-Carboxamide]
36 µM | O=C1NC(=O)[C@](CNC(=O)c2ccncc2-c2ccc(C(F)(F)F)cc2)(C2CC2)N1 [Example 83, N-{[(4R)-4-Cyclopropyl-2,5-Dioxoimidazolidin-4-Yl]Methyl}-3-[4-(Trifluoromethyl)Phenyl]Pyridine-4-Carboxamide]
50 µM | O=C1NC(=O)[C@](CNC(=O)c2ccccc2-c2ccc(C(F)(F)F)cn2)(C2CC2)N1 [Example 84, N-{[(4R)-4-Cyclopropyl-2,5-Dioxoimidazolidin-4-Yl]Methyl}-2-[5-(Trifluoromethyl)Pyridin-2-Yl]Benzamide]
13 µM | Cc1nsnc1C1(CNC(=O)c2ccccc2-c2ccc(C(F)(F)F)cc2)NC(=O)NC1=O (stereo not drawn) [Example 85, Ent-N-{[4-(4-Methyl-1,2,5-Thiadiazol-3-Yl)-2,5-Dioxoimidazolidin-4-Yl]Methyl}-4′-(Trifluoromethyl)[Biphenyl]-2-Carboxamide]
7.6 µM | Cc1nscc1C1(CNC(=O)c2ccccc2-c2ccc(C(F)(F)F)cc2)NC(=O)NC1=O (stereo not drawn) [Example 86, Ent-N-{[4-(3-Methyl-1,2-Thiazol-4-Yl)-2,5-Dioxoimidazolidin-4-Yl]Methyl}-4′-(Trifluoromethyl)[Biphenyl]-2-Carboxamide]
6.9 µM | Cc1nn(C)cc1C1(CNC(=O)c2ccccc2-c2ccc(C(F)(F)F)cc2)NC(=O)NC1=O (stereo not drawn) [Example 87, Ent-N-{[4-(1,3-Dimethyl-1H-Pyrazol-4-Yl)-2,5-Dioxoimidazolidin-4-Yl]Methyl}-4′-(Trifluoromethyl)[Biphenyl]-2-Carboxamide]
9.1 µM | Cc1cnoc1C1(CNC(=O)c2ccccc2-c2ccc(C(F)(F)F)cc2)NC(=O)NC1=O (stereo not drawn) [Example 88, Ent-N-{[4-(4-Methyl-1,2-Oxazol-5-Yl)-2,5-Dioxoimidazolidin-4-Yl]Methyl}-4′-(Trifluoromethyl)[Biphenyl]-2-Carboxamide]
